This is an account of results in paper PMC6934700, “Structure-Guided Design of a Fluorescent Probe for the Visualization of FtsZ in Clinically Important Gram-Positive and Gram-Negative Bacterial Pathogens” (Scientific Reports, 2019).

The target of one assay is T1, S. agalactiae (SagFtsZ) (Streptococcus agalactiae, UniProt Q8E183).
T1 sequence (Q8E183 1-426): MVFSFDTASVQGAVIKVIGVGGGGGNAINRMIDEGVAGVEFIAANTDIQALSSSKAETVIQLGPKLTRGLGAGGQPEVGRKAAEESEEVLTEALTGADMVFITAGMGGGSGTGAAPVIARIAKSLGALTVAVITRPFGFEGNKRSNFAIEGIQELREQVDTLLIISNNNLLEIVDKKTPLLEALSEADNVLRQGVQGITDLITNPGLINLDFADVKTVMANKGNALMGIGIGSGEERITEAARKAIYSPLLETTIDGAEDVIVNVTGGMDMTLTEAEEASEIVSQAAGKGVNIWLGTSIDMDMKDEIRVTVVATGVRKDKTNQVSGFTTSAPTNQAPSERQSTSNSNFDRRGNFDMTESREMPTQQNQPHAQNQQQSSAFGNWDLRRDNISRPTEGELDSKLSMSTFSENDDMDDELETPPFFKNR
The assay is described as follows: Fluorescence anisotropy binding of BOFP to SagFtsZ. The conditions noted are these: for Kd: 50 mM Tris-HCl (pH 7.6), 50 mM KCl, 0.1 µM BOFP. As for the experimental part:
Fluorescence anisotropy experiments were performed using an AVIV model ATF105 spectrofluorometer at 15, 25, or 37 °C. In these experiments, bandwidths were set to 4 nm in both the excitation and emission directions, with the excitation and emission wavelengths being set at 488 nm and 510 nm, respectively. BOFP (0.1 µM) was titrated with increasing concentrations (ranging from 0 to 12 µM) of FtsZ in 120 µL of buffer containing 50 mM Tris-HCl (pH 7.6) and 50 mM KCl. After each protein addition, the samples were equilibrated for 3 minutes, whereupon the fluorescence anisotropy was measured.
In this equation, r0 is the anisotropy of the protein-free compound, r∞ is the anisotropy of the compound in the presence of an infinite concentration of FtsZ, [C]tot is the total concentration of the compound, and [P]tot is the total concentration of protein with each addition. These analyses yielded the equilibrium dissociation constant (Kd) for each binding reaction.
The binding free energy (ΔG) at temperature T was derived from the corresponding Kd value determined at T using the following relationship:2 ΔG=−RTln(1/Kd)
The binding enthalpy (ΔH) and entropy (ΔS) were derived from linear fits of the ln(1/Kd) vs. 1/T plots shown in Figs. 3f and 5e using the following relationship:3 ln(1/Kd)=−ΔH/R(1/T)+ΔS/R

In assay [1] the test system is FtsZ in K. pneumoniae ATCC 13883 cells. Put plainly: FtsZ visualization by fluorescence microscopy in live cells. The class given is cell-based, Klebsiella pneumoniae. Particulars: 1 µg/mL for 5 minutes. How it is done:
(§1) All differential interference contrast (DIC) and fluorescence microscopy experiments were conducted using an Olympus BX50 microscope equipped with an X-cite Exacte 200 W mercury lamp, a 100× Olympus UPLSAPO oil immersion objective (1.40 aperture), as well as both Chroma ET-EGFP (FITC/Cy2) and ET mCherry, Texas Red filters. Images were captured using a QImaging Retiga R3 charge-coupled device (CCD) camera and the Ocular-Version 2.0 software package (QImaging).
For visualizing FtsZ in Gram-negative bacteria using BOFP, E. coli ATCC 25922, K. pneumoniae ATCC 13883, P. aeruginosa ATCC 27853, and A. baumannii ATCC 19606 were grown to log-phase in CAMH broth. For each Gram-negative bacterial strain, a total of 1 mL of cell culture was centrifuged at 15,000 × g for 1 minute and washed twice with 1 mL of Tris-buffered saline (TBS) composed of 50 mM Tris-HCl (pH 7.6) and 150 mM NaCl. After the final wash, the pelleted cells were resuspended in 500 µL of TBS containing 1 µg/mL of BOFP and pentamidine isethionate (at 0.875 mg/mL for E. coli and 3.5 mg/mL for the other three strains). The resuspended cells were then incubated in the dark for 5 minutes at room temperature, centrifuged at 15,000 × g for 1 minute, washed twice with 1 mL of TBS, and subsequently resuspended in 200 µL of TBS. This final cell suspension was then prepared for microscopy as described for the Gram-positive bacterial strains. Comparative control experiments with 1 µg/mL BODIPY FL-COOH were conducted in K. pneumoniae ATCC 13883 cells as described above for BOFP.

Assay [2] deals with T2, FtsZ in S. aureus NRS705 cells (Staphylococcus aureus, UniProt P0A031).
T2 construct: endogenous in cells; host or cells: S. aureus NRS705 (USA100 MRSA)
The assay is classed as cell-based. The conditions noted are these: 1 µg/mL for 5 minutes. As for the experimental part:
as §1
For visualizing FtsZ in Gram-positive bacteria using BOFP, the bacterial cells were grown to log-phase in media suitable for each individual pathogen. Specifically, S. aureus NRS705 (MRSA) was grown in tryptic soy broth (TSB), E. faecalis ATCC 29212 and E. faecium ATCC 19434 were grown in lactobacilli MRS broth, S. agalactiae ATCC 12386 and S. pneumoniae ATCC 49619 were grown in TH broth, and S. pyogenes ATCC 19615 was grown in CAMH broth supplemented with 3% (v/v) LHB. For each Gram-positive bacterial strain, a total of 1 mL of cell culture was centrifuged at 15,000 × g for 1 minute and washed 2–3 times with 1 mL of PBS. After the final wash, the pelleted cells were resuspended in 500 µL of PBS containing 1 µg/mL of BOFP and incubated in the dark for 5 minutes at room temperature. The cells were then centrifuged at 15,000 × g for 1 minute, washed twice with 1 mL of PBS, and subsequently resuspended in 200 µL of PBS. […]

Molecules are shown by their SMILES. Read-outs that look alike come from different tables or passages of the source.

T2 sequence (P0A031 whole entry): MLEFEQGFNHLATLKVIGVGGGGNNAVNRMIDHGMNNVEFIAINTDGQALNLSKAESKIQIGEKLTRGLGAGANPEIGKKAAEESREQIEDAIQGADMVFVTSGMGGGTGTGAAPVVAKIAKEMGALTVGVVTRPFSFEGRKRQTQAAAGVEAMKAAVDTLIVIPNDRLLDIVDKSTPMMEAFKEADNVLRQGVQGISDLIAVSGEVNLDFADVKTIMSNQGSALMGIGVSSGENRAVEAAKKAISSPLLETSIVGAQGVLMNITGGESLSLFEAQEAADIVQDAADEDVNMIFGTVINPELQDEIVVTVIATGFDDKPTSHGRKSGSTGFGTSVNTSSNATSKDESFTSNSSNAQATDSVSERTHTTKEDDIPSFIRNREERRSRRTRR

Turning to `CC1=CC(C)=[N+]2C1=Cc1ccc(CCC(=O)OCC(Oc3ccc(F)c(C(N)=O)c3F)c3nc(-c4ccc(C(F)(F)F)cc4)c(Br)o3)n1[B-]2(F)F` (stereo not shown) [BOFP], the equilibrium dissociation constant (Kd) was determined as 0.62 ± 0.05 µM at S. agalactiae (SagFtsZ) (15 °C, read-out: Kd - 15 °C); 1.02 ± 0.09 µM on S. agalactiae (SagFtsZ) (25 °C, read-out: Kd - 25 °C); 1.31 ± 0.04 µM at S. agalactiae (SagFtsZ) (37 °C, read-out: Kd - 37 °C). The ΔH at S. agalactiae (SagFtsZ) (from linear fit of ln(1/Kd) vs. 1/T) is -6.6 ± 0.6 kcal/mol. For the same molecule, the “Fluorescence staining / FtsZ labeling in live cells” value in assay [1] (co-treated with 3.5 mg/mL pentamidine isethionate) was “bright fluorescence staining becomes visible both at midcell and along the cell periphery”; in assay [1] (without pentamidine isethionate), “little or no FtsZ labeling”; in assay [2] it was “bright bands of fluorescence staining are clearly visible at midcell”.

What is called Kd is the equilibrium constant for the complex coming apart.
